Laboratory results reported in patent publication US12679855B2, “Inhibitors of the enzyme enolase for precision oncology” (Board of Regents, The University of Texas System, priority 2019, dated 2026).
“Also recorded” adds a separate entry of the source. Like-named read-outs stand apart in the source and are kept apart here. One block for each compound: values may come before it.

What was measured:
[1] = tested on: xenografted tumor (D423 ENO1-homozygously deleted cell line); experiment: Anti-tumor efficacy in xenografted tumor model; type: in vivo, Foxn1 nude mice
Description: Two HEX pro-drugs from different classes were tested for anti-tumor efficacy in xenografted tumor (D423 ENO1-homozygously deleted cell line) pre-clinical models (the standard immunodeficient Foxn1 nude mice). Tumor volumes (y-axis) were measured at the indicated dates (x-axis). Without treatment, tumors grow inexorably. […] This is notable because of the high esterase activity in mouse plasma, rodents are a sub-optimal model for pre-clinical efficacy evaluation of esterase-labile pro-drugs.

[2] = tested on: D423 (ENO1-deleted) glioma cells; experiment: Cell proliferation assay (crystal violet) in ENO1-deleted glioma cells; type: cell-based; settings: for IC50: Glioma cell; for selectivity for ENO1-deleted cells: versus ENO1-rescued (D423 ENO1) and ENO1-intact (LN319) glioma cells
Description: Cell culture experiments. Cell culture experiments were conducted using the D423-MG cell line. 1p36 homozygous deletion in D423 includes the genes from CAMTAJ to SLC25A33; this includes ENO1. Isogenic ENO1 ectopically rescued lines were described previously (pCMV ENO1 5X) (Muller et al., 2012, which is incorporated by reference herein). An ENO1-intact cell line (LN319) was used as a control for sensitivity to Enolase inhibitors. Cells were routinely cultured in Dulbecco's modified Eagle's medium supplemented with 10% fetal bovine serum.
Cell proliferation assay. Cell Proliferation was determined by crystal violet staining, as previously described (Leonard et al., 2016 and Satani et al., 2016). The cell lines used were D423 (ENO1-deleted), D423 ENO1 (overexpressing ENO1) and LN319 (control). Glioma cells were seeded in 96-well plates and treated with varying concentrations of the inhibitors described above for 7 days. Cells were then washed with PBS, fixed with 10% formalin and stained with 0.05% crystal violet. Washed and dried plates were dye-extracted using 10% acetic acid, and absorbance was measured at 595 nm using Omegastar Plate Reader (BMG Labtech). To test the efficacy of the synthesized under hypoxic conditions, 1×10^4 cells were plated in 96-well plates, treated with VCY13, VCY15, VCY16, or VCY17 and incubated for 3 days in a hypoxia station (Don Whitley Scientific, Shipley, UK) set at 1% O2 and 5% CO2. Crystal violet staining was then performed as described above.
Additional Biological Data. Pro-drug inhibitor structures and corresponding IC50 values against ENO1-deleted cells are shown below in Table 2. The name and corresponding structures of all synthesized inhibitors are given in left and middle columns of each table. Pro-drug moieties in blue represent a second pro-drug leave group while those in red represent a first pro-drug leave group. Some inhibitors also contain an acetyl-protected hydroxamate, which is also a biologically labile moiety. ENO1-deleted (D423), ENO1-isogenically rescued (D423 ENO1), and ENO1-WT (LN319) cells were treated with either pro-drug inhibitor for 5 days at 21% O2, unless otherwise specified. […] IC50,D423 values at 21% O2 are given in the right columns of each table. Experiments conducted at 1% O2 (hypoxic) or 70% O2 (hyperoxic) conditions are noted, where appropriate.

[3] = Human plasma stability assay (31P NMR); type: in vitro ADME
Description: VCY17 (left) and POMHEX (right) were prepared at 1.5 mM and added to human plasma in an NMR tube with 10% D2O for signal lock. […] As expected, emergence of the second peak after 1 h is due to hydrolysis of the acetyl-protected hydroxamate; the nitroimidazole moiety remains attached (mono-ester phosphonates always show ^31P-chemical shifts <20 ppm); intact phosphoramidate mixed ester was verified by ^31P-^1H HSQC showing resonance with protons at ~5 ppm (—CH2—O—P) and 4 ppm (—CH2—NH—P). Note that VCY17 and de-acetylated VCY17 can come out as doublets: this is because two chiral centers (Phosphorus and C1) yield cis/trans diasteromers.
VCY13 (FIG. 20A) and VCY31 (FIG. 20B) are thioesterase-labile phosphonoamidates. ENO1-deleted (D423, red), ENO1-isogenically rescued (D423 ENO1, blue), and ENO1-WT (LN319, grey) cells were treated with either VCY13 or VCY31 for 5 days. […] (FIG. 20B) VCY31 is a structurally similar pro-drug that uses 2-picolylamine, rather than benzylamine, as a second pro-drug leave group. […] 4 mM VCY31 was dissolved in 80% human plasma, 20% D2O and monitored by ^31P NMR (121 MHz) for 15 hours. Intact VCY31 has a ^31P NMR shift of 33 ppm. Hydrolysis of the thioester begins to occur after 2 hours, as indicated by the emergence of a peak at ~16 ppm.
Human plasma stability assay. POMHEX and VCY17 (1.5 mM) were added to human plasma (Sigma #P9523) in an NMR tube with 10% D2O for signal lock. ^31P NMR measurements (31P CPD, 1000 transients) were conducted every 30 minutes on the first day and every 24 hours, for 4 days afterwards.

[4] = type: in vitro ADME
Source text: Also described herein are synthesized phosphonate pro-drugs that forgo the use of phosphoramidases or esterases to release the active pharmacophore. These moieties include the attachment of 2-(hydroxymethyl)phenol (VCY27) and 3-(hexadecyloxy)propan-1-ol (ESB7). […] Cyclosal pro-drugs have previously been described for protecting phosphate-containing antiviral nucleotides; however, it was herein discovered that its delivery efficacy can be enhanced under high O2 conditions—a previously unknown finding. Separately, the 3-(hexadecyloxy)propan-1-ol is a pro-drug that has been applied to the antiviral nucleotide Brincidofovir (CMX-001). Appending the long chain ester to HEX may facilitate the pro-drug moiety to be used for the treatment of malignant glioma.

[5] = pH degradation assay (31P NMR in phosphate buffered D2O); type: physicochemical; settings: pH 3, 7, and 8.82, phosphate buffered D2O, NMR over 3 days
Description: (§1) To assure that benzylamine-protected HEX (FLM38) was not inhibiting Enolase directly, an in vitro spectrophotometric assay was performed to examine Enolase catalytic activity through conversion of 2-phoshpoglycerate (2-PG) to phosphoenolpyruvate (PEP). Without wishing to be bound by theory, if FLM38 were to inhibit Enolase directly, a dose-dependent decrease in absorbance at 240 nm would be observed, corresponding to decreased production of PEP. […] The possibility that the benzylamine moiety could undergo non-enzymatic hydrolysis in aqueous conditions was also examined. This study was performed by measuring the pH-dependence of compound degradation in phosphate buffered D2O via NMR over 3 days.
pH degradation assay. Solutions of 50 mM phosphate buffered D2O were prepared at pH 3, 7, and 8.82. For each condition, FLM38 (5 mg, […]) was dissolved in […] of phosphate buffered D2O and placed in NMR tubes. Hydrolysis was monitored by ^31P NMR and was evidenced by the degradation of the compound peak at ~20 ppm and the emergence of the hydrolyzed product at ~18 ppm. Scans were collected every 12 h on a Bruker 500 MHz NMR.

[6] = tested on: Enolase; experiment: Enolase enzymatic activity assay (spectrophotometric, 2-PG to PEP, 240 nm); type: biochemical, human; settings: serial dilutions beginning at 100 μM, native lysates
Description: as §1
Enolase enzymatic activity assay. The enzyme activity assay was performed according to a previously described procedure (Muller et al., 2012, which is incorporated by reference herein). […]
In the first, the lysates were treated with the serial dilutions of FLM38 (starting at 100 μM) and the reaction initiated by adding 2.5 mM 2-PG and optical density (OD) was measured at 240 nm using Omegastar Plate reader (BMG Labtech) over the course of 3 h.
In the second experiment, the lysates were pre-incubated in 96-well plates with serial dilutions of FLM38 (starting at 100 µM) at 37° C. for 20 h. The reaction was initiated by adding 2.5 mM 2-PG and OD was measured at 240 nm. […]

[7] = tested on: NCI-60 cell lines; experiment: NCI-60 screening; type: cell-based; settings: NSC: D-813202
Source text: Without wishing to be bound by any particular theory, phosphoamidates may be removed across broad cell types. Whilst the IDX184 utilized benzylamine in its pro-drug structure, this drug was specifically directed at hepatocytes, and no evidence was forthcoming that it would be a pro-drug moiety applicable for glioblastoma or other cancer drug delivery. […] For example, FLM37 has been submitted to the NCI-60 screening (NSC: D-813202). All cancer cell lines were affected at concentrations of FLM37 above 10 μM, some with as little as 1 μM. […] More generally, this means that the amine as a second leaving group is applicable as a universal second leaving group for the delivery of phosphonate/phosphate containing bioactive compounds.

[8] = tested on: D423 (ENO1-deleted) glioma cells; experiment: Cell proliferation assay (crystal violet) in ENO1-deleted glioma cells; type: cell-based
[9] = Serum containing cell culture media stability assay; type: in vitro ADME
Description: Serum containing Cell Culture Media stability assay. POMHEX and VCY17 (1 mM) were added to DMEM-containing 10% Fetal Bovine Serum cell culture media in an NMR tube with 10% D2O for signal lock) and incubated at 37° C. ^31P NMR measurements (^31P CPD, 1000 transients) were conducted every 24 hours, for 4 days.

[10] = nitroimidazole in VCY17, nitrofuran in VCY15; cited from earlier work
[11] = 120 h, 21% O2, 5 days where stated, read-out: IC50 against D423 (ENO1-deleted) cells
[12] = 120 h, ENO1-deleted (D423) cells, 5 days, 21% O2, read-out: IC50,D423
[13] = 4 mM in 80% human plasma, 20% D2O, 31P NMR

IC50 [2, 11]: 59 nM
IC50 [2, 12]: 59 nM
hydrolysis of the thioester begins to occur after [3, 13]: 2 h
time without full hydrolysis [3, 13]: > 15 h
SMILES: CC(=O)ON1CCCC(P(=O)(NCc2ccccn2)OCCSC(=O)C(C)(C)C)C1=O (stereo not shown) [VCY31, 2-oxo-3-((2-(pivaloylthio)ethoxy)((pyridin-2-ylmethyl)amino)phosphoryl) piperidin-1-yl acetate]
tumor volume response ([1]; 90 mg/kg/day IP): suppressed tumor growth
selectivity for ENO1-deleted cells [2]: dose-dependent selectivity for ENO1-deleted cells

SMILES: CCCCCCCCCCCCCCCCOCCCOP(=O)(O)C1CCCN(O)C1=O (stereo not shown) [ESB7, 3-(hexadecyloxy)propyl hydrogen (1-hydroxy-2-oxopiperidin-3-yl)phosphonate]
IC50 [2, 12]: 202 nM
selectivity for ENO1-deleted cells [2]: selective killing against ENO1-deleted cells
stability under various pH conditions and in biological fluids [4]: robust stability

stability to non-enzymatic hydrolysis [5]: remained intact
direct inhibition of Enolase (dose-dependent decrease in absorbance at 240 nm) [6]: does not inhibit Enolase directly
SMILES: O=C1C(P(=O)(O)NCc2ccccc2)CCCN1O (stereo not shown) [FLM38, N-benzyl-P-(1-hydroxy-2-oxopiperidin-3-yl)phosphonamidic acid]

SMILES: O=C1C([P@]2(=O)OCc3ccccc3O2)CCCN1O (stereo partly drawn) [VCY27, 1-hydroxy-3-((S)-2-oxido-4H-benzo[d][1,3,2]dioxaphosphinin-2-yl)piperidin-2-one]
tumor volume response ([1]; 1 IP and 1 SC injection, at 35 mg/kg/day each): immediate abrogation of tumor growth and eventual tumor regression
IC50 [2, 11]: ~500 nM
IC50 [2, 12]: 500 nM
IC50 ([2]; D423 cells, 70% O2 (hyperoxic), read-out: IC50,D423 at 70% O2): 15 nM
selectivity for ENO1-deleted cells [2]: selective killing against ENO1-deleted cells
stability under various pH conditions and in biological fluids [4]: robust stability

SMILES: CC(C)(C)C(=O)OCOP(=O)(NCc1ccccc1)C1CCCN(O)C1=O (stereo not shown) [FLM37]
concentration at which some cancer cell lines were affected [7]: ≥ 1 µM
concentrations at which all cancer cell lines were affected [7]: above 10 μM
IC50 [2, 11]: 244 nM
IC50 [2, 12]: 150 nM
selectivity for ENO1-deleted cells [2]: selective killing towards D423 cells; also recorded: selective for ENO1-deleted cells
IC50 ([8]; Glioma cell, 144 h, 6 days, starting concentration 1 μM, crystal violet (FIG. 7), read-out: IC50 towards D423 cells): 63 nM

stable in serum-containing culture media [9]: more than 48 hours
IC50 [2, 12]: 12700 nM
IC50 ([2]; D423 cells, 1% O2 (hypoxic), read-out: IC50,D423 at 1% O2): 975 nM
stable in ex-vivo human plasma for [3]: more than 48 hours
stability in ex-vivo human plasma over the course of ([3]; 1.5 mM, human plasma with 10% D2O, 31P NMR): ≥ 24 h
SMILES: CC(=O)ON1CCCC(P(=O)(NCc2ccccc2)OCc2cnc([N+](=O)[O-])n2C)C1=O (stereo not shown) [VCY17, 3-((benzylamino)((1-methyl-2-nitro-1H-imidazol-5-yl)methoxy)phosphoryl)-2-oxopiperidin-1-yl acetate]
redox potential of the nitroheterocycle [10]: −390 mV
difference in bioactivation from 21% to 1% O2 ([2]; taking into account HIF-1α/hypoxia-driven increase in ENO2 expression): ≤ 50 fold
potency increase under 1% O2 ([8]; 4 days, 1% O2 versus 21% O2, ENO1-deleted glioma cells): greater than 15 fold
